biological target: T1, SLC22A3 (OCT3) (Homo sapiens, UniProt O75751); assay: Impedance-based MPP+ transport assay, HEK293–JumpIn–OCT3 cells; assay type: cell-based; conditions: not given
T1 construct: expressed in transfected cells; host or cells: Jump In T-REx HEK293
T1 sequence (O75751 1-556): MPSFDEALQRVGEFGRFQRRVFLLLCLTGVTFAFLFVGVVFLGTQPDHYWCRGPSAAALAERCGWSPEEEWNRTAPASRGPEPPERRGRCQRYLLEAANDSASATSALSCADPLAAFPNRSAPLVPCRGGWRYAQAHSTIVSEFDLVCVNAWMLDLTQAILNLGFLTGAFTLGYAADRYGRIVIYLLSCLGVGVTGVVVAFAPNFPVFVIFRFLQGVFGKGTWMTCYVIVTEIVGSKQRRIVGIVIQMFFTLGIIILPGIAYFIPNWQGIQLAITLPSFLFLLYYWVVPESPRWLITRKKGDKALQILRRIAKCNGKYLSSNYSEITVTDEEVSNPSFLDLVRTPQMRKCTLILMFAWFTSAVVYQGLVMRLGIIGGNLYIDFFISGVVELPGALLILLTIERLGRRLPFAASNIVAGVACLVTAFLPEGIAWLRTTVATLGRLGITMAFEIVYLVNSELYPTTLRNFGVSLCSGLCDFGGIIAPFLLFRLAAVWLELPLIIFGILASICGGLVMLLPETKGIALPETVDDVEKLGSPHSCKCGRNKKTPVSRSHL

Structure (SMILES)	IC50
C=C(C)[C@H]1CN[C@H](C(=O)O)[C@H]1CC(=O)O [Kainic acid]	> 10 µM

same assay, conditions: phenotypic; read-out: pIC50 (act), SLC22A3 (converted)

Structure (SMILES)	IC50
CN1C2CCC1CC(OC(c1ccccc1)c1ccccc1)C2 (stereo not drawn) [Benzotropine]	> 10 µM
CCNC(=O)/C=C/c1cccc(Br)c1 [Cinromide]	> 10 µM
O=S(=O)(O)c1cc(N=C=S)ccc1/C=C/c1ccc(N=C=S)cc1S(=O)(=O)O [DIDS]	> 10 µM
COCCOc1cc(CC2CCN(CCc3ccc4c(c3)C(=O)CCO4)CC2)ccc1Br [DSP-1053]	> 10 µM
CNCCCN1c2ccccc2CCc2ccccc21 [Desipramine]	> 10 µM
CC(C)[C@H]1CN[C@H](C(=O)O)[C@H]1CC(=O)O [Dihydrokainate]	> 10 µM
N#Cc1ccc(Nc2cnccc2SCc2ccccc2C(=O)O)c2ccccc12 [KPH2f]	> 10 µM
CCOC(=O)N1CCC(=C2c3ccc(Cl)cc3CCc3cccnc32)CC1 [Loratadine]	> 10 µM

system: 13 different SLCs (SLC1A1, SLC1A2, SLC1A3, SLC6A2, SLC6A4, SLC6A8, SLC6A9, SLC7A3, SLC9A1, SLC13A3, SLC22A3, SLC23A1, SLC6A12); assay: Test of selected compounds against a panel of 13 SLCs in RESOLUTE assays; assay type: cell-based, human; conditions: other tested SLCs of the 13-SLC panel; in words

Structure (SMILES)	off-target activity / selectivity across the tested SLC panel
CCNC(=O)/C=C/c1cccc(Br)c1 [Cinromide]	confirm the selectivity
O=S(=O)(O)c1cc(N=C=S)ccc1/C=C/c1ccc(N=C=S)cc1S(=O)(=O)O [DIDS]	could not identify any new off-target effects

biological target: T2, SLC1A2 (Homo sapiens, UniProt P43004); assay: not given; conditions: SLC1A2, known data from the KNIME workflow; ref ChEMBL, GtoPdb; cited from earlier work
T2 sequence (P43004 whole entry): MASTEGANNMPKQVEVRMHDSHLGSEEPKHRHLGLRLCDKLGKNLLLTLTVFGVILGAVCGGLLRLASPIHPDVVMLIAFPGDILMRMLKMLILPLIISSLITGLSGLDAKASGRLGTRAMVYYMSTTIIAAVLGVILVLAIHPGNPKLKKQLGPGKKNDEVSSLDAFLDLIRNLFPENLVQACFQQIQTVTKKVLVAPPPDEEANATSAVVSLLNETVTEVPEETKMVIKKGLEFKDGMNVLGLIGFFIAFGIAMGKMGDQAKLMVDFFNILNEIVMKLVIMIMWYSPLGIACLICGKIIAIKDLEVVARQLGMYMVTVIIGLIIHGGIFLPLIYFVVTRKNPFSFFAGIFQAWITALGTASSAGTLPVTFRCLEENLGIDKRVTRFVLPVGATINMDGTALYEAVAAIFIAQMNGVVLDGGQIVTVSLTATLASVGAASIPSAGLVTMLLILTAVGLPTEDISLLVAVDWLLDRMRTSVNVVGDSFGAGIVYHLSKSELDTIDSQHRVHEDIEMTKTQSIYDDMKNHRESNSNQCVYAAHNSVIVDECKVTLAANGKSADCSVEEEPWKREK

Structure (SMILES)	primary_SLC_act / SLCs_act
CC(C)[C@H]1CN[C@H](C(=O)O)[C@H]1CC(=O)O [Dihydrokainate]	4.08

biological target: SLC6A2 (Homo sapiens, UniProt P23975); assay: not given; conditions: SLC6A2, known data from the KNIME workflow; ref ChEMBL, PubChem, GtoPdb; cited from earlier work
Sequence (P23975 whole entry): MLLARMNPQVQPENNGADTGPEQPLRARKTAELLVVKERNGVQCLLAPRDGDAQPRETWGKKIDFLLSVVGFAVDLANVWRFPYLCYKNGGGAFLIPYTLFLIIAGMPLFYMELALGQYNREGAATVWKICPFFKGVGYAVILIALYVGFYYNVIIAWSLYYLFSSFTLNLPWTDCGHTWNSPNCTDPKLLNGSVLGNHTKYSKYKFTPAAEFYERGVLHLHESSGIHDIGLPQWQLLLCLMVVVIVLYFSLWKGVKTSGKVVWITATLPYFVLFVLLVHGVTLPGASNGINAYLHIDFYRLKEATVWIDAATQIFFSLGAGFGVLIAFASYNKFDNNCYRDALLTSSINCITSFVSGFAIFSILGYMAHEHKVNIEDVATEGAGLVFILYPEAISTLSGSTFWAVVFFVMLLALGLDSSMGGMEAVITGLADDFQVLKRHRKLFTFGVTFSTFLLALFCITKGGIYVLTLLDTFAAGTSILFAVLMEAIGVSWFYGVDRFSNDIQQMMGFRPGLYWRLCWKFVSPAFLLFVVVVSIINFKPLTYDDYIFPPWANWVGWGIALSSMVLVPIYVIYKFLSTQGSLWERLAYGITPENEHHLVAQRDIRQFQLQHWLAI

Structure (SMILES)	primary_SLC_act / SLCs_act
CN1C2CCC1CC(OC(c1ccccc1)c1ccccc1)C2 (stereo not drawn) [Benzotropine]	6.49

biological target: SLC6A4 (Homo sapiens, UniProt P31645); assay: cell-based; conditions: not given
Sequence (P31645 whole entry): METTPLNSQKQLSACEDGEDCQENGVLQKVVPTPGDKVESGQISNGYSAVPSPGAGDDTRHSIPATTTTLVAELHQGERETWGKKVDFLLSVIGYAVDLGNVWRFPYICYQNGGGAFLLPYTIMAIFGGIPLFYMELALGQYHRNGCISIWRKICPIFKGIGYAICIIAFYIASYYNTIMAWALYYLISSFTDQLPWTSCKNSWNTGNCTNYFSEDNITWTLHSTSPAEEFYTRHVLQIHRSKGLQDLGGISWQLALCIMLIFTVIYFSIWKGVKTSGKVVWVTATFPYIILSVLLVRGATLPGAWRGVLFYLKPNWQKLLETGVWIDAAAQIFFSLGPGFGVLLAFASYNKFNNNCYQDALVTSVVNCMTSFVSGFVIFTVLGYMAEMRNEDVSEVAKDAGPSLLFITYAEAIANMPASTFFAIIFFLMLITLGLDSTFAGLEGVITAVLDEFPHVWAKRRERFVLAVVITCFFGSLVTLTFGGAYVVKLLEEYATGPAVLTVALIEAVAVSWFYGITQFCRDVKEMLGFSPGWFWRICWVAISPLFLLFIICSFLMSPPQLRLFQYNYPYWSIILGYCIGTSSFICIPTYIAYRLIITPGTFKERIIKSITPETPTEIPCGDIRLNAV

IC50	Structure (SMILES)
> 10 µM	CCNC(=O)/C=C/c1cccc(Br)c1 [Cinromide]
> 10 µM	O=S(=O)(O)c1cc(N=C=S)ccc1/C=C/c1ccc(N=C=S)cc1S(=O)(=O)O [DIDS]
~1 µM	N#Cc1ccc(Nc2cnccc2SCc2ccccc2C(=O)O)c2ccccc12 [KPH2f]

Structure (SMILES)	IC50
CC(C)[C@H]1CN[C@H](C(=O)O)[C@H]1CC(=O)O [Dihydrokainate]	> 10 µM

biological target: T3, SLC1A1 (Homo sapiens, UniProt P43005); assay: Echo-MS assay, uptake of labeled glutamic acid in dox-induced HEK293–JumpIn–SLC1A1 (EAAT3) cells; assay type: cell-based; design: expressed in transfected cells; host or cells: Jump In T-REx HEK293; conditions: not given
T3 sequence (P43005 1-524): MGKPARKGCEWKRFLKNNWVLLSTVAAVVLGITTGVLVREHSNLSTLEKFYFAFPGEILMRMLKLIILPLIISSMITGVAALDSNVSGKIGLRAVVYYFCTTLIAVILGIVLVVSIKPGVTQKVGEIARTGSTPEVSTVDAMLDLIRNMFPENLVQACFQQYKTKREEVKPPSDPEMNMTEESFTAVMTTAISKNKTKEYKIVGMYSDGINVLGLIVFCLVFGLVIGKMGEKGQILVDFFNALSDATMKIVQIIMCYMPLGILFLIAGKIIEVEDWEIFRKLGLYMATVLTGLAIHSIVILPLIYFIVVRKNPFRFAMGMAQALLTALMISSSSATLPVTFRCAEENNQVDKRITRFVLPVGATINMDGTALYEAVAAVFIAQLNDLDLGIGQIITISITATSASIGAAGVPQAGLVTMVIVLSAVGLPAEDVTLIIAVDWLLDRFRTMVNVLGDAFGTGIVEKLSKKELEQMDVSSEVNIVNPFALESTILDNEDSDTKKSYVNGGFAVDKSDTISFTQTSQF

Structure (SMILES)	IC50
C=C(C)[C@H]1CN[C@H](C(=O)O)[C@H]1CC(=O)O [Kainic acid]	> 10 µM

same assay, conditions: dox-induced HEK293–JumpIn–SLC1A1 cells; top conc. 30 µM; read-out: pIC50, SLC1A1, EchoMS (converted)

IC50	Structure (SMILES)
6.31 µM	O=S(=O)(O)c1cc(N=C=S)ccc1/C=C/c1ccc(N=C=S)cc1S(=O)(=O)O [DIDS]
1 µM	N#Cc1ccc(Nc2cnccc2SCc2ccccc2C(=O)O)c2ccccc12 [KPH2f]

same assay, conditions: target SLC1A1, assay EchoMS; read-out: pIC50 (act) (converted)

Structure (SMILES)	IC50
CN1C2CCC1CC(OC(c1ccccc1)c1ccccc1)C2 (stereo not drawn) [Benzotropine]	> 30 µM
CCNC(=O)/C=C/c1cccc(Br)c1 [Cinromide]	> 30 µM
O=S(=O)(O)c1cc(N=C=S)ccc1/C=C/c1ccc(N=C=S)cc1S(=O)(=O)O [DIDS]	5.72 µM
COCCOc1cc(CC2CCN(CCc3ccc4c(c3)C(=O)CCO4)CC2)ccc1Br [DSP-1053]	> 30 µM
CNCCCN1c2ccccc2CCc2ccccc21 [Desipramine]	> 30 µM
CC(C)[C@H]1CN[C@H](C(=O)O)[C@H]1CC(=O)O [Dihydrokainate]	> 10 µM
N#Cc1ccc(Nc2cnccc2SCc2ccccc2C(=O)O)c2ccccc12 [KPH2f]	0.894 µM

biological target: T2, SLC1A2; assay: Echo-MS assay, uptake of labeled glutamic acid in dox-induced HEK293–JumpIn–SLC1A2 (EAAT2) cells; assay type: cell-based; design: expressed in transfected cells; host or cells: Jump In T-REx HEK293; conditions: not given
Method: Before the Echo-MS experiment, 15,000 cells per well were seeded into the wells of a 384-well plate (Beckman Coulter) and induced with […] doxycycline. […] The next day, compounds with stock solutions of 10 mM were first diluted to a final concentration of 90 µM before starting a 10-stage dilution series with a dilution factor of 1:3 with the CyBio FeliX pipetting robot. After the supernatant in the plate of the cell plate assay was discarded (BlueWasher, BlueCatBio), 10 µL of potassium/wash buffer including the compound dilution series was transferred by the pipetting robot (FeliX, CyBio), yielding a highest final concentration of 30 µM compound per well. After an incubation time of 15 min, 20 μL of L-Glutamic acid-13C5,15N with a concentration of 300 µM was added and incubated in an incubator at 37°C, 7.5% CO2, and 95% humidity. After 1 h incubation time, the wells were washed with 70 µL potassium buffer per well, and the supernatant was discarded before the precipitation process was started by adding 90 µL/well precipitation reagent (60% MeOH, 29% H2O, 11% formic acid) using a Multidrop Combi reagent dispenser (Thermo Fisher Scientific). After 30 min on the shaker at 500 rpm, the plates were centrifuged for 20 min at 2,000 rpm. Finally, 40 µL/well was transferred on qualified 384-well plates and then measured with Echo-MS/ADE-MS (Sciex). ADE-MS measurements were performed on an ADE-MS device (Sciex) operated with Sciex OS software (version 2.1.6.59781). A carrier solvent (60% acetonitrile, 39% H2O, and 1% formic acid) was used at a constant flow rate of 300 μL/min. For all samples, an ejection volume of 5 nL (2 droplets) and a repetition rate of 2.5 s/well were used. Triple Quad 6500+ was operated in a positive mode using the following settings: vaporizer temperature 450°C, spray voltage 5500 V, ion source gas 1: 90 psi, ion source gas 2: 70 psi, curtain gas 20 psi, CAD gas 9 psi, dwell time […], DP 35 V, EP 10 V, CE 14 V, and CXP 18 V. Data were processed with Sciex OS and further processed with Genedata Screener (version 19.0.9-Standard). Transporter inhibition by the compounds was tracked by analyzing the MS signal area values of uptaken labeled glutamic acid into the cell. The signal ratio of the reaction product to the respective standard was calculated to diminish variations ascribed to the sample preparation procedure or the MS readout. Average control values were calculated and set to 100% activity (high controls) and 0% activity (low controls), while the response values of compound-containing wells were normalized against the controls and expressed as the percentage of control (PoC).

Structure (SMILES)	IC50
C=C(C)[C@H]1CN[C@H](C(=O)O)[C@H]1CC(=O)O [Kainic acid]	> 30 µM

same assay, conditions: target SLC1A2, assay EchoMS; read-out: pIC50 (act) (converted)

Structure (SMILES)	IC50
CN1C2CCC1CC(OC(c1ccccc1)c1ccccc1)C2 (stereo not drawn) [Benzotropine]	> 30 µM
CCNC(=O)/C=C/c1cccc(Br)c1 [Cinromide]	> 30 µM
O=S(=O)(O)c1cc(N=C=S)ccc1/C=C/c1ccc(N=C=S)cc1S(=O)(=O)O [DIDS]	> 30 µM
COCCOc1cc(CC2CCN(CCc3ccc4c(c3)C(=O)CCO4)CC2)ccc1Br [DSP-1053]	11.7 µM
CNCCCN1c2ccccc2CCc2ccccc21 [Desipramine]	> 30 µM
CC(C)[C@H]1CN[C@H](C(=O)O)[C@H]1CC(=O)O [Dihydrokainate]	> 30 µM
N#Cc1ccc(Nc2cnccc2SCc2ccccc2C(=O)O)c2ccccc12 [KPH2f]	> 30 µM
CCOC(=O)N1CCC(=C2c3ccc(Cl)cc3CCc3cccnc32)CC1 [Loratadine]	> 30 µM

Source: paper PMC11267547, “Advancing drug discovery through assay development: a survey of tool compounds within the human solute carrier superfamily” (Frontiers in Pharmacology, 2024)
